Measured values from ChEMBL document CHEMBL5725308, “Inhibitors of the fibroblast growth factor receptor” (2017).
pIC50: −log10 of the molar value.

target: Fibroblast growth factor receptor 4 (Homo sapiens, UniProt P22455); experiment: The reaction was stopped by the addition of 70 ul of Stop buffer (100 mM HEPES pH 7.5, 0.015% Brij 35, 35 mM EDTA and 0.2% of Coating Reagent 3 (Caliper Lifesciences)). The plate was then read on a Caliper LabChip EZ Reader II (protocol settings: −1.9 psi, upstream voltage −700, downstream Voltage -3000, post sample sip 35S).; assay type: biochemical
Sequence (P22455 whole entry): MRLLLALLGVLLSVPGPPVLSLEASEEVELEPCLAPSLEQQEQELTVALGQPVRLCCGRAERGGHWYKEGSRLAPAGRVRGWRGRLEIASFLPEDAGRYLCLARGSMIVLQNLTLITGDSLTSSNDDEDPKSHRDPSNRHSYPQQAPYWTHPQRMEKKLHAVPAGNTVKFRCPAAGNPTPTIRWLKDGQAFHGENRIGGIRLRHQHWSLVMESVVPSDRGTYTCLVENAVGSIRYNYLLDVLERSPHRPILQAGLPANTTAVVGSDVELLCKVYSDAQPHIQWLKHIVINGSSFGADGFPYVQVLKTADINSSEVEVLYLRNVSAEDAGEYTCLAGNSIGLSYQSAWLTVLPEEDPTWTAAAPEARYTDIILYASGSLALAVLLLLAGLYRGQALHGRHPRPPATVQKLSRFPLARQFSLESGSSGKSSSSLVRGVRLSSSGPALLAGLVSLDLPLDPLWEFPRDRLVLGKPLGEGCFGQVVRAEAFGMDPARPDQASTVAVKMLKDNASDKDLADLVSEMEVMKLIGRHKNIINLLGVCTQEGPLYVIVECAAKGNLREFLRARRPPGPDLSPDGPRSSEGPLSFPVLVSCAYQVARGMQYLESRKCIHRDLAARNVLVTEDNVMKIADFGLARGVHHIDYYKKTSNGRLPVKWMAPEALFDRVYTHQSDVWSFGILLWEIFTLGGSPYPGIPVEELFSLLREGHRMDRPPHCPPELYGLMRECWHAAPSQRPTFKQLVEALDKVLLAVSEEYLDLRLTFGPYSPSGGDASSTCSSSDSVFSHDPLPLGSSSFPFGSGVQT

pIC50 | Structure (SMILES)
> 8.00 | C=CC(=O)Nc1ccccc1-c1cc2c(cn1)cc(-c1c(Cl)c(OC)cc(OC)c1Cl)c(=O)n2C1CCCC1
> 8.00 | C=CC(=O)N1CC(C)(C)Oc2ccc(-c3cc4c(cn3)cc(-c3c(Cl)c(OC)cc(OC)c3Cl)c(=O)n4CC)cc21
> 8.00 | C=CC(=O)N1CCc2ccc(-c3ncc4cc(-c5c(Cl)c(OC)cc(OC)c5Cl)c(=O)n(CC)c4n3)cc21
< 6.00 | C=CC(=O)Nc1ccccc1-c1ncc2cc(-c3c(Cl)c(OC)cc(OC)c3Cl)cc(OC)c2n1
> 8.00 | C=CC(=O)Nc1cccc(-c2cc3c(cn2)cc(-c2c(Cl)c(OC)cc(OC)c2Cl)c(=O)n3C2CCCC2)c1
